Values of other authors in article PMC3892053, “Pharmacokinetic/pharmacodynamic modeling for the determination of a cimicoxib dosing regimen in the dog” (BMC Veterinary Research, 2013).
Read-outs that look alike come from different tables or passages of the source.

Assays:
[1] = cited from earlier work
[2] = test system: nociceptive threshold; set-up: method as in PMID 19186002; settings: rats, given systemically; cited from earlier work
[3] = test system: g.i.t side effects; set-up: method as in PMID 16871494; settings: large scale survey, mainly vomiting; cited from earlier work
[4] = test system: wound healing; set-up: method as in PMID 19175721; settings: mechanism independent of prostaglandin synthesis; cited from earlier work
[5] = test system: COX-1/COX-2; settings: cited from earlier work; for greater potency for COX-2 inhibition: highly selective COX-2 inhibitors
[6] = as quoted in Discussion, no reference given
[7] = population PK survey in osteoarthritic dogs

In the case of `CC(C(=O)O)c1ccc2c(c1)[nH]c1ccc(Cl)cc12` (stereo not drawn) [Carprofen], the half-life ([1]; dogs) is listed as “about 9 h”.
For `Cc1ccc(-c2cc(C(F)(F)F)nn2-c2ccc(S(N)(=O)=O)cc2)cc1` [celecoxib], the “hypoalgesia (ipsilateral nociceptive threshold raised above basal values)” value (shortened to “hypoalgesia”) [2] is given as “induced a state of hypoalgesia”.
In the case of `CC1(C)OC(=O)C(OCC2CC2)=C1c1ccc(S(C)(=O)=O)cc1` [firocoxib], the half-life [1, 6] is given as 7 h, the plasma clearance ([1]; dog) is given as 7.7 mL/min/kg and the half-life ([1]; mixed-breed dogs) is given as 5.9 h. The “withdrawal rate associated with g.i.t side effects” value [3] was 2.9 % of dogs, the “effect on wound healing” value [4] was “slow down wound healing” and the “greater potency for COX-2 inhibition” value [5] was “more than 100 fold”. The COX-1/COX-2 selectivity index ([5]; whole blood assay) was 384.
For `COc1ccc2c(c1)c(CC(=O)O)c(C)n2C(=O)c1ccc(Cl)cc1` [indomethacin], the “hypoalgesia” value [2] is given as “not observed”.
For `NS(=O)(=O)c1ccc(-n2nc(C(F)(F)F)cc2-c2ccc(F)cc2)cc1` [mavacoxib], the half-life ([1]; dog, in vivo) is listed as 415 h, the plasma clearance ([1]; dog, in vivo) is listed as 0.045 mL/min/kg and the “half-life of some beagle dogs” value ([1]; laboratory beagle dogs) is listed as over 720 h. For the same compound, the “terminal half-life in some dogs (5% of the population)” value [1, 7] was “exceeded 80 days”, the “terminal half-life, extreme values” [1, 7] was “up to 140 days” and the “typical terminal half-life (population mean)” value [1, 7] was 1060 h.
In the case of `CN1C(C(=O)Nc2ccccn2)=C(O)c2ccccc2S1(=O)=O` [piroxicam], the “hypoalgesia” value [2] is given as “not observed”.
In the case of `CCc1ccc(Nc2c(F)c(F)cc(F)c2F)c(CC(=O)O)c1` [robenacoxib], the half-life [1, 6] is listed as 1 h, the half-life ([1]; beagle dogs) is listed as 0.63 h and the plasma clearance ([1]; dog) is listed as 13.5 mL/min/kg. For the same compound, the “greater potency for COX-2 inhibition” value [5] was “more than 100 fold”.
